Experimental findings from patent US8309546B2, “Morpholinopurine derivatives” (Daiichi Sankyo Company, Limited, priority 2008, dated 2012) are described below.

The subject of experiment [1] is human colon cancer cell strain HT29. Put plainly: Cell growth inhibition test (MTT), HT29. The format is cell-based. As to conditions: HT-29, 72 h, HT29, 3 days culture, read-out: concentration exhibiting anti-cell effect (GI50). Here is the method: (§1) After a cultured cancer cell strain was treated with a test compound for a predetermined period, a cell growth inhibition test was performed by measuring the living cell count by the 3-(4,5-dimethylthiazol-2-yl)-2,5-diphenyltetrazoliumbromide (MTT) method.
(§2) Human endometrial cancer cell strain AN3CA, human ovary cancer cell strain IGROV1, and human colon cancer cell strain HT29 were seeded in a 96-well plate at 5000, 1000, and 5000 cells, respectively, per well. On the following day of seeding, a test compound having a predetermined concentration was added and the culture was continued at 37° C. in 5% CO2 for 3 days. On the final day of culture, an MTT reaction solution was added and the resulting mixture was reacted for 4 hours to form formazan by dehydrogenases contained in living cells. Subsequently, the culture broth was removed, DMSO was added to solubilize formazan, and the amount of produced formazan was determined by measuring absorbance at 540 nm using a microplate reader.
(§3) Since correlations of the amount of produced formazan and the living cell count had been confirmed, the cell growth rate was calculated by the following formula. Cell growth rate (T/C %) after addition of test compound=100×[(B−C)/(A−C)] A: Absorbance of well not containing test compound (final culture day) B: Absorbance of well containing test compound (final culture day) C: Absorbance of well immediately before addition of test compound (following day of cell seeding)
(§4) Furthermore, the cell growth rate at each concentration of serially diluted test compound solutions was obtained, and the concentration of the test compound resulting in a 50% growth rate was obtained as the GI50 value from two concentrations including 50% therebetween and the growth rates were selected.

Experiment [2] has as its target T1, human mTOR (His-tagged mTOR (1362C)) (Homo sapiens, UniProt P42345).
T1 construct: the 1362 to 2549 amino acid portion on the C terminus side of human mTOR; His tag (N); made in house
As to the kind of experiment: mTOR kinase activity inhibition assay. The format is biochemical. The note with it: HTRF, read-out: IC50 against mTOR. As for the experimental part: The mTOR kinase activity was determined in the presence and absence of a test compound. A substrate peptide is phosphorylated by mTOR kinase activity. A complex of streptavidin-XL665 and anti-phosphorylated S6K (Thr389) antibody-anti-mouse IgG-cryptate binds to this phosphorylated peptide. At this time, irradiation of excitation light induces transfer of fluorescence resonance energy from the excited cryptate to XL665, emitting fluorescence at 665 nm. Utilizing this principle, mTOR kinase activity was detected. When the mTOR inhibitor is present, phosphorylation of a substrate peptide is inhibited, and the biding of the above-mentioned complex to the substrate peptide is inhibited.
A His tag was introduced into the N terminus end of the 1362 to 2549 amino acid portion on the C terminus side of human mTOR, and a cell line was prepared, so that His-tagged mTOR should be constantly expressed in a HEK293 cell. A cell lysate was prepared from this HEK293 cell which constantly expressed His-tagged mTOR (1362C), and a crude product of His-tagged mTOR (1362C) was obtained by a usual method utilizing His tag.
Subsequently, an mTOR enzyme solution was prepared which contained the above-mentioned His-tagged mTOR (1362C) enzyme and 8 μg/ml biotinylated peptide (Biotin-Ahx-[…]-amide [Sigma]), as well as 50 mM HEPES (pH 7.5), 20 mM MnCl2, 1 mg/ml BSA, a suitable amount of protease inhibitor cocktail (Complete EDTA free, Roche Ltd.), 100 ng/ml calyculin A, and 4 μg/ml cantharidin as other components.
The test compound was dissolved in dimethyl sulfoxide (DMSO) and serially diluted with 20 μm ATP solution (50 mM HEPES (pH 7.5), 20 μM ATP) to obtain concentrations required for the assay. 5 μl of this compound solution was added to each well of a 384-well small volume white plate manufactured by Greiner Bio-One Co., Ltd.
5 μl of the mTOR enzyme solution was added to the above-mentioned well containing the test compound and the resulting mixture was left standing for 3 hours room temperature to proceed an enzymatic reaction.
The same procedure was performed using a solution obtained by dissolving DMSO in 20 μM ATP solution as a positive control and a solution obtained by dissolving DMSO in 50 mM HEPES buffer (pH 7.5) as a negative control.
After the enzymatic reaction, 5 μl each of an europium solution (a solution obtained by dissolving anti-mouse IgG-cryptate [SCETI Medical Labo K.K.] and anti-phosphorylation S6K [Thr389] antibody [Cell Signaling Technology Inc.] in 50 mM HEPES [pH 7.5], 100 mM EDTA, and 1.5 mg/ml BSA) and an XL665 solution (a solution obtained by dissolving Streptavidin-XL 665 [SCETI Medical Labo K.K.] in 50 mM HEPES [pH 7.5], 100 mM EDTA, 0.8 M KF, and 1.5 mg/ml BSA) were added in this order and mixed and the resulting mixture was left standing overnight at 4° C. On the following day, the mixture was returned to room temperature and then irradiated with 337-nm excitation light and fluorescence at 620 and 665 nm was measured with RUBYstar (BMG LABTECH JAPAN Ltd.).
mTOR inhibitory activity (%) was calculated using the ratio calculated from the measured values as an indicator of enzyme activity. Here, the ratio was calculated by the following formula (1). Ratio=10,000×fluorescence at 665 nm/fluorescence at 620 nm (1)
mTOR enzyme inhibitory activity (%) was calculated by the following formula (2). mTOR enzyme inhibitory activity (%)=100×[(P−S)/(P−N)] (2) P: Ratio in positive control well N: Ratio in negative control well S: Ratio in well containing the test compound
Furthermore, an optimal curve was created using the concentrations of the serially diluted test compound solutions and mTOR enzyme inhibitory activity (%) at each concentration to obtain the concentration showing 50% inhibition as the IC50 value of mTOR enzyme inhibitory activity.
In general terms: Time-resolved FRET reads energy transfer from a long-lived donor to a nearby acceptor.

In the next experiment the target is PI3Kα (Homo sapiens, UniProt P42336). As to the kind of experiment: PI3K kinase activity inhibition assay. Type of experiment: biochemical. As to conditions: Kinase-Glo Plus ATP detection, read-out: IC50 against PI3K. Here is the method:
PI3Kα kinase activity was determined in the presence and absence of a test compound. The test compound was dissolved in DMSO and diluted serially with an ATP solution (30 μm ATP, 50 mM HEPES, pH 7.4, 50 mM NaCl, 0.05% CHAPS, 10 mM MgCl2, and 5 mM dithiothreitol [DTT]). First, 7 μl each of the serially diluted test compound solutions was added to each well of a black 384-well plate. Subsequently, 7 μl of a phosphatidylinositol 4,5-bisphosphate (PIP2) solution (45 μm PIP2, 50 mM HEPES, pH 7.4, 50 mM NaCl, 0.05% CHAPS, 10 mM MgCl2, and 5 mM DTT) was added to each well of the 384-well plate. Finally, 7 μl of a solution containing PI3Kα (50 nM PI3Kα, 50 mM HEPES, pH 7.4, 50 mM NaCl, 0.05% CHAPS, 10 mM MgCl2, and 5 mM DTT) was added to each well of the 384-well plate to initiate a reaction. The mixture was reacted at room temperature for 2 hours and then 21 μl of the Kinase-Glo Plusreagent (Promega) was, added to each well of the 384-well plate to terminate the reaction. After the termination of the reaction, the solution was left standing for 15 minutes and then luminescence was measured with ARVO (PerkinElmer Co., Ltd.) to detect ATP remaining in the reaction solution.
The amount of ATP consumed in the reaction was obtained for each well and used as an indicator of PI3Kαkinase activity. The PI3Kα kinase activity in wells not containing the test compound was calculated by the following formula (1). Furthermore, the PI3Kα kinase activity in wells containing the test compound was calculated by the following formula (2). The PI3Kα inhibitory activity (%) of the test compound was calculated by the following formula (3). PI3Kα kinase activity in wells not containing the test compound=B−C (1) PI3Kα kinase activity in wells containing the test compound=B−P (2) PI3Kα inhibitory activity (%) of test compound=100−100×[(B−P)/(B−C)] (3) B: Measured value in wells not containing PI3Kα or the test compound C: Measured value in wells containing PI3Kα and not containing the test compound P: Measured value in wells containing PI3Kα and the test compound
Furthermore, an optimal curve was calculated with Graph Pad Prism 4 using concentrations of the serially diluted test compound solutions and PI3Kα inhibitory activity (%) at each concentration to obtain the concentration showing 50% inhibition as the IC50 value of PI3Kα inhibitory activity.
(Kinase-Glo reads ATP consumption through a luciferase reaction.)

In experiment [3] the test system is human ovary cancer cell strain IGROV1. Put plainly: Cell growth inhibition test (MTT), IGROV1. Type of experiment: cell-based. The note with it: IGROV-1, 72 h, IGROV1, 3 days culture, read-out: concentration exhibiting anti-cell effect (GI50). Here is the method: as §1, §2, §3, §4
In experiment [4] the test system is human endometrial cancer cell strain AN3CA. As to the kind of experiment: Cell growth inhibition test (MTT), AN3CA. The format is cell-based. As to conditions: AN3-CA, 72 h, 3 days culture, read-out: concentration exhibiting anti-cell effect (GI50). As for the experimental part:
as §1, §2, §3, §4

Molecules are shown by their SMILES. “And” between values parts separate entries of the source, which are not always exact repeats. Equal entries are not always repeated.

Chain of PI3Kα (P42336 whole entry, species assumed): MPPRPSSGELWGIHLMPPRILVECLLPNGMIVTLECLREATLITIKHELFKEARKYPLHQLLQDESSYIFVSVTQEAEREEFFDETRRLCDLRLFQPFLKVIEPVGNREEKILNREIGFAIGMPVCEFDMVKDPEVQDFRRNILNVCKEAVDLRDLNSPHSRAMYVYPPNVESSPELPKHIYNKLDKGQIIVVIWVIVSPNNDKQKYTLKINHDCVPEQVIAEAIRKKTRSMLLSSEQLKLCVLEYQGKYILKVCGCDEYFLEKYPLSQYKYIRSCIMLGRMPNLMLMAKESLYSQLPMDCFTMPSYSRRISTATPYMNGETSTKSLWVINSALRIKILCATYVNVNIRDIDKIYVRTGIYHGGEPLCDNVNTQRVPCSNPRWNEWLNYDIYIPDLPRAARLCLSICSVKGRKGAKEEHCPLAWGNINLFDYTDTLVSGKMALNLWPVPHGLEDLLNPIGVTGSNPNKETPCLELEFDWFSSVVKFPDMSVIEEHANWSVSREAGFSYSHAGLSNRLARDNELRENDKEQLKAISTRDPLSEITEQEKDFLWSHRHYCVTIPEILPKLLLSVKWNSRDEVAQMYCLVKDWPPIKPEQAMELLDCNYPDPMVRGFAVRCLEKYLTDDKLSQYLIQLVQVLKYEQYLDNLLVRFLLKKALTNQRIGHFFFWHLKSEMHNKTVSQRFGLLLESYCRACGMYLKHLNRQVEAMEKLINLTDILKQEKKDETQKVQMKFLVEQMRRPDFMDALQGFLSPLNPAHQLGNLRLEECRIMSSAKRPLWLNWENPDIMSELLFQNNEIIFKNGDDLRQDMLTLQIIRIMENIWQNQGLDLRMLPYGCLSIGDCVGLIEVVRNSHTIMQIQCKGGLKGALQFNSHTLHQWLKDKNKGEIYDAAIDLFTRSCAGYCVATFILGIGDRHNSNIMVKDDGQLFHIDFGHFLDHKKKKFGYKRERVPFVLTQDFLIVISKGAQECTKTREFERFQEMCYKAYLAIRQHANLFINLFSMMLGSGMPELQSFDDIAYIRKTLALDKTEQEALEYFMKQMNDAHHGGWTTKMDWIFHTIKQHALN
Chain of PI3Kα (P27986 whole entry partner, species assumed): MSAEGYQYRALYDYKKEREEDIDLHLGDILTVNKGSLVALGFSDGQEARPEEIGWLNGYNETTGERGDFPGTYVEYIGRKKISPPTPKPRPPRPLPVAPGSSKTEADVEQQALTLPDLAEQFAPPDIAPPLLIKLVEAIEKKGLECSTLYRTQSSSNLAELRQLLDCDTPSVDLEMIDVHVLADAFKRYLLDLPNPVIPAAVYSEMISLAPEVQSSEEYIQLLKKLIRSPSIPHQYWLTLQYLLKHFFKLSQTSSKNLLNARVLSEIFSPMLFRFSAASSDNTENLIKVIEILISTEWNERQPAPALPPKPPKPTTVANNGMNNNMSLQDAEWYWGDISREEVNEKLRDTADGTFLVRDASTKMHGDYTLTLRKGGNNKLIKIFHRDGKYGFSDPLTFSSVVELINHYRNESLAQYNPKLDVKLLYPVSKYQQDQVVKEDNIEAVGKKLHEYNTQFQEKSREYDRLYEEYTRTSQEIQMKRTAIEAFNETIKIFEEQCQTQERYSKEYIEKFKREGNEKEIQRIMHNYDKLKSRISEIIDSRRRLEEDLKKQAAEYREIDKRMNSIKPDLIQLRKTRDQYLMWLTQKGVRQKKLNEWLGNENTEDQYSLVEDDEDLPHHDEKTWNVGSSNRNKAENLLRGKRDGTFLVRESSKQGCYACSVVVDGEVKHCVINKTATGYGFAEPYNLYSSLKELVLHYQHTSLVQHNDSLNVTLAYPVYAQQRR
T1 sequence (P42345 1362-2549): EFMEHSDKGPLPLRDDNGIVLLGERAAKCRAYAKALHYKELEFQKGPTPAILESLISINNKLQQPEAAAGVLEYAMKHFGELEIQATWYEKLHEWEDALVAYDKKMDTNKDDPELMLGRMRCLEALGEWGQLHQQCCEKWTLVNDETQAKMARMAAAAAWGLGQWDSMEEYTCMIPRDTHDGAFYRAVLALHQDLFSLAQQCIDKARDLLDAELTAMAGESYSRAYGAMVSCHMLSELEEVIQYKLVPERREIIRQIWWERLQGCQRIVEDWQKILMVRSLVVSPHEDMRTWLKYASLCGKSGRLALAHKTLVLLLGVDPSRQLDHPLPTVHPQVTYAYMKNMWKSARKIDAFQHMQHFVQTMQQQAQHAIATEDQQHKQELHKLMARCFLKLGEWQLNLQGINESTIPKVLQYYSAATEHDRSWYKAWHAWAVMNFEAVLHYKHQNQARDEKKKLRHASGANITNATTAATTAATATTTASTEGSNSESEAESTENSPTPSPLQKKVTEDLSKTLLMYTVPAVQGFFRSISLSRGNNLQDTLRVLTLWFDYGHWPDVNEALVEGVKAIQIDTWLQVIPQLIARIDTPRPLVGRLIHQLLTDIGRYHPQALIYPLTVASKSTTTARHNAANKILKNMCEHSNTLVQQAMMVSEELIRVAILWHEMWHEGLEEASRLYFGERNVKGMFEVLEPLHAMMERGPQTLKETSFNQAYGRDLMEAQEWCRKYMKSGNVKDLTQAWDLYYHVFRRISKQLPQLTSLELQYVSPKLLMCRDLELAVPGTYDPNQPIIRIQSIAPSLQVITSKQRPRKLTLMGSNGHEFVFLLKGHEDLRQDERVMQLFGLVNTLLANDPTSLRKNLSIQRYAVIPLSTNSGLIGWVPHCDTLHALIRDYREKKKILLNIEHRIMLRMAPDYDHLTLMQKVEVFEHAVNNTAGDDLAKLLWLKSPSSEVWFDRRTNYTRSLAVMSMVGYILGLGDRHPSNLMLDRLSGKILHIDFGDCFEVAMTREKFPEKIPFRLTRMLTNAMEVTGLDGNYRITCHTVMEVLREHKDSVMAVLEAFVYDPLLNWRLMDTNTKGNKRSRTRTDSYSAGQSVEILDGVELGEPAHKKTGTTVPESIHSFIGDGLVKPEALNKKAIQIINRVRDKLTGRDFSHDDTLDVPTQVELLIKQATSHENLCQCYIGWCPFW

On to `CC(C)Cn1c(N2CCCN(S(C)(=O)=O)CC2)nc2c(N3CCOCC3)nc(-c3cnc(N)nc3)nc21` [Example 49, 5-{9-Isobutyl-8-[4-(methylsulfonyl)-1,4-diazepan-1-yl]-6-morpholin-4-yl-9H-purin-2-yl}pyrimidin-2-amine], for which the GI50 in experiment [1], in experiment [3] and in experiment [4] was at most 5000 nM in each case. Also, the IC50 was 10 to 30 nM in experiment [2] and below 10 nM at PI3Kα.
For `CS(=O)(=O)N1CCN(c2nc3c(N4CCOCC4)nc(-c4cnc(N)nc4)nc3n2CC2CCOC2)CC1` (stereo not shown) [Example 5, 5-{8-[4-(Methylsulfonyl)piperazin-1-yl]-6-morpholin-4′-yl-9-(tetrahydrofuran-3-ylmethyl)-9H-purin-2-yl}pyrimidin-2-amine], the GI50 in experiment [1], in experiment [3] and in experiment [4] was at most 5000 nM in each case. Further, the IC50 in experiment [2] is 10 to 30 nM; on PI3Kα, 10 to 20 nM and 20 to 50 nM.
In the case of `CN(C)CC(=O)N1CCN(c2nc3c(N4CCOCC4)nc(-c4cnc(N)nc4)nc3n2CC2CC2)CC1` [Example 40, 5-[9-(Cyclopropylmethyl)-8-{4-[(dimethylamino)acetyl]piperazin-1-yl}-6-morpholin-4-yl-9H-purin-2-yl]pyrimidin-2-amine], the GI50 in experiment [1], in experiment [3] and in experiment [4] was at most 5000 nM throughout. Besides, the values for the IC50 (in experiment [2]; on PI3Kα) were 100 to 500 nM and 10 to 20 nM, respectively.
For `Nc1ncc(-c2nc(N3CCOCC3)c3nc(NCCN4CCOCC4)n(CC4CC4)c3n2)cn1` [Example 29, 2-(2-Aminopyrimidin-5-yl)-9-(cyclopropylmethyl)-6-morpholin-4-yl-N-(2-morpholin-4-ylethyl)-9H-purin-8-amine], the GI50 in experiment [1], in experiment [3] and in experiment [4] was at most 5000 nM each time. Further, the IC50 lay in the range of 100 to 500 nM in experiment [2] and 10 to 20 nM at PI3Kα.
Regarding `Cc1nc(N)ncc1-c1nc(N2CCOCC2)c2nc(N3CCC(CO)CC3)n(CC3CC3)c2n1` [Example 37, {1-[2-(2-Amino-4-methylpyrimidin-5-yl)-9-(cyclopropylmethyl)-6-morpholin-4-yl-9H-purin-8-yl]piperidin-4-yl}methanol], the GI50 in experiment [1], in experiment [3] and in experiment [4] was at most 5000 nM in each case. For the same compound, the IC50 in experiment [2] fell in the range of 100 to 500 nM; at PI3Kα, 10 to 20 nM.
`CS(=O)(=O)N1CCN(c2nc3c(N4CCOCC4)nc(-c4cnc(N)nc4)nc3n2[C@H]2CCN(S(C)(=O)=O)C2)CC1` [Example 27, 5-{8-[4-(Methylsulfonyl)piperazin-1-yl]-9-[(3S)-1-(methylsulfonyl)pyrrolidin-3-yl]-6-morpholin-4-yl-9H-purin-2-yl}pyrimidin-2-amine]: the GI50 in experiment [1], in experiment [3] and in experiment [4] was at most 5000 nM throughout. For the same compound, the IC50 in experiment [2] fell in the range of 30 to 100 nM; on PI3Kα, 20 to 50 nM.
For the compound `CC(=O)N1CCN(c2nc3c(N4CCOCC4)nc(-c4cnc(N)nc4)nc3n2CC(F)(F)F)CC1` [Example 9, 5-[8-(4-Acetylpiperazin-1-yl)-6-morpholin-4-yl-9-(2,2,2-trifluoroethyl)-9H-purin-2-yl]pyrimidin-2-amine], the GI50 in experiment [1], in experiment [3] and in experiment [4] was at most 5000 nM in each case. For the same compound, the results for the IC50 (in experiment [2]; at PI3Kα) were below 10 nM and 10 to 20 nM, respectively.
As for `C[C@@H]1CN(c2nc3c(N4CCOCC4)nc(-c4cnc(N)nc4)nc3n2CC2CCOC2)C[C@H](C)N1` (stereo partly drawn) [Example 17, 5-[8-(cis-3,5-Dimethylpiperazin-1-yl)-6-morpholin-4-yl-9-(tetrahydrofuran-3-ylmethyl)-9H-purin-2-yl]pyrimidin-2-amine], the GI50 in experiment [1], in experiment [3] and in experiment [4] was at most 5000 nM in each case. The IC50 in experiment [2] lay within 100 to 500 nM; at PI3Kα, 20 to 50 nM.

The IC50 is the concentration that gives 50% inhibition.
